“Also recorded” adds a separate entry of the source. Like-named read-outs stand apart in the source and are kept apart here.
How the values were obtained:
SARS-CoV-2 = assay: microbe, parasite or virus in culture; format: cell-based; details: for inhibition of SARS-CoV-2 by monoterpenes (in words): 72 h incubation
[1] = Cytotoxicity assay (MTS tetrazolium) on Vero 76 cells; details: African green monkey
in vitro = details: African green monkey
[2] = Severe acute respiratory syndrome coronavirus 2, Vero 76, 72 h, monoterpenes, infected Vero 76 cells, 0.02 MOI, 72 h, MTT, tested 1,000–4.91 μM, mean ± SD, read-out: EC50 SARS-Cov2
[3] = monoterpenes, infected Vero 76 cells, 0.02 MOI, 72 h, MTT, tested 1,000–4.91 μM, mean ± SD, read-out: EC50 SARS-Cov2
[4] = Severe acute respiratory syndrome coronavirus 2, Vero 76, 72 h, read-out: EC50 SARS-Cov2, monoterpenes, infected Vero 76 cells, 0.02 MOI, 72 h, MTT, tested 1,000–4.91 μM, mean ± SD
[5] = read-out: EC50 SARS-Cov2, monoterpenes, infected Vero 76 cells, 0.02 MOI, 72 h, MTT, tested 1,000–4.91 μM, mean ± SD

Row | SMILES | EC50 (SARS-CoV-2; [2]) [µM] | IC50 [1] [µM] | IC50 (in vitro) [µM] | inhibition of SARS-CoV-2 by monoterpenes (in words) (SARS-CoV-2; infected Vero 76 cells) | also measured
1 | CC12CCC(CC1)C(C)(C)O2 [1,8-Cineol] | > 100 | > 1000 | – | – | EC50 (SARS-CoV-2; [3]): 129 ± 15 µM
2 | Cc1ccc(C(C)C)cc1O [Carvacrol] | – | – | 455 ± 31.1 | – | EC50 (SARS-CoV-2; [4]): 86.5 ± 12.7 µM; EC50 (SARS-CoV-2; [5]): 80.2 ± 6.07 µM; EC50 (SARS-CoV-2; read-out: EC50 SARS-Cov2, monoterpenes, infected Vero 76 cells, 0.02 MOI, 72 h, MTT, tested 1,000–4.91 μM, mean ± SD, listed as carvacrol): < 100 µM
3 | C=C(C)C1CC=C(C)C(=O)C1 (centres unmarked) [Carvone] | 80.2 ± 6.07 | > 1000 | – | – | EC50 (SARS-CoV-2; [3]): 86.5 ± 12.7 µM
4 | CCN(CC)CCCC(C)Nc1ccnc2cc(Cl)ccc12 (centres unmarked) [Chloroquine, reference compound] | 7.57 ± 1.18 | – | > 1000 | – | –
5 | C=C(C)C1CC=C(C)CC1 (centres unmarked) [Limonene] | – | > 1000 | – | – | EC50 (SARS-CoV-2; Severe acute respiratory syndrome coronavirus 2, Vero 76, 72 h, read-out: EC50 SARS-Cov2): > 1000 µM
6 | C=CC(C)(O)CCC=C(C)C (centres unmarked) [Linalool] | – | – | > 1000 | did not inhibit the SARS-CoV-2 at any significant rate; also recorded: Absence of activity | EC50 (SARS-CoV-2; [4]): > 1000 µM
7 | Cc1coc2c1CCC(C)C2 (centres unmarked) [Menthofuran] | – | – | 506 ± 76.4 | – | EC50 (SARS-CoV-2; [4]): > 100 µM; EC50 (SARS-CoV-2; [5]): 154 ± 16.3 µM
8 | CC1CCC(C(C)C)C(O)C1 (centres unmarked) [Menthol] | > 1000 | > 1000 | – | did not inhibit the SARS-CoV-2 at any significant rate; also recorded: Absence of activity | –
9 | CC(C)[C@@H]1CC[C@@H](C)CC1=O [Menthone] | > 1000 | > 1000 | – | did not inhibit the SARS-CoV-2 at any significant rate; also recorded: Absence of activity | –
10 | CC(C)=C1CC[C@@H](C)CC1=O [Pulegone] | – | – | > 1000 | – | EC50 (SARS-CoV-2; [4]): > 100 µM; EC50 (SARS-CoV-2; [5]): 196 ± 17.1 µM
11 | CC1=CCC(O)(C(C)C)CC1 (centres unmarked) [Terpinen-4-ol] | > 1000 | > 1000 | – | did not inhibit the SARS-CoV-2 at any significant rate; also recorded: Absence of activity | –
12 | Cc1ccc(C(C)C)c(O)c1 [Thymol] | – | 509 ± 31.5 | – | limited antiviral activity | rate of SARS-Cov-2 inhibition (SARS-CoV-2; infected Vero 76 cells, 72 h, concentration not given): 58.54 ± 10.45%
13 | Cc1ccc(C(C)C)cc1 [p-Cymene] | > 1000 | > 1000 | – | did not inhibit the SARS-CoV-2 at any significant rate; also recorded: Absence of activity | –
14 | CC1=CC[C@@H](C(C)(C)O)CC1 [α-Terpineol] | > 1000 | > 1000 | – | did not inhibit the SARS-CoV-2 at any significant rate; also recorded: Absence of activity | –

— PMC9108200, “Antiviral Activity of Selected Lamiaceae Essential Oils and Their Monoterpenes Against SARS-Cov-2” (Frontiers in Pharmacology, 2022)
